Source: US20090311237A1, “Combination therapy using a soluble hyaluronidase and a bisphosphonate” (priority 2008, published 2009)
Where “and” joins values, the source holds several entries; their conditions need not be identical. Identical values can stand only once.

Test: Phase 1 Stage 1 clinical pharmacokinetics of SC ZA co-administered with rHuPH20
Assay type: in vivo, human
Settings: for MAT (mean absorption time = SC MRT − IV MRT) / MAT, Mean for the dose group / MAT, Median for the dose group: 100 mL, 24000 Units rHuPH20
Protocol: A pharmacokinetic study of zoledronic acid (ZA) co-administered with rHuPH20 in human subjects was conducted. The primary objective of the study was to determine the bioavailability of zoledronic acid dosed via subcutaneous (SC) co-administration with human recombinant hyaluronidase PH20 (rHuPH20). […] The patients were administered the prescribed dosage formulations as follows: Cohorts 1-5 were administered a single subcutaneous infusion in a dosage volume of 100 ml at a rate of 3 mL/min. […] The dosing solution is administered via needle or catheter into the SC space of the left anterior thigh (midway between the anterior iliac crest and the cephalad border of the patella). For cohorts 1-5, the dosing solutions were administered by a controlled rate infusion pump at approximately 3 mL/minute. […] The dosing solutions were administered by syringe push bolus injection. […] Serum concentration of ZA was determined using a qualified LC-MS-MS assay after derivatization with diazomethane (Zhu, L S et al. (2006) Rapid Commun. […] The assay range was from 2.0 to 400 ng/mL with a lower limit of quantitation (LLOQ) at 2.0 ng/mL. […] Non-compartmental analysis was used for derivation of primary and secondary pharmacokinetic (PK) parameters. […] Summary statistics (mean, standard deviation, and median) were calculated using JMP or Microsoft Excel.

[1] = Subj 1, ZA […] SC, inf 0.554 hr, PH20 23928 U
[2] = Subj 8, ZA […] SC, inf 0.531 hr, PH20 22944 U
[3] = Subj 11, ZA […] SC, inf 0.554 hr, PH20 23928 U
[4] = Subj 16, ZA […] SC, inf 0.553 hr, PH20 23904 U
[5] = Subj 18, ZA […] SC, inf […], PH20 23304 U
[6] = Subj 21, ZA […] SC, inf 0.556 hr, PH20 24000 U
[7] = Subj 25, ZA […] SC, inf 0.549 hr, PH20 23736 U
[8] = Subj 26, ZA […] SC, inf […], PH20 23088 U
[9] = Subj 27, ZA 0.0196 mg/kg SC, inf […], PH20 23976 U
[10] = Subj 29, ZA 0.0339 mg/kg SC, inf 0.556 hr, PH20 24000 U
[11] = Subj 31, ZA […] SC, inf 0.554 hr, PH20 23952 U
[12] = Subj 32, ZA […] SC, inf 0.556 hr, PH20 24000 U
[13] = Subj 37, ZA 0.0791 mg/kg SC, inf 0.556 hr, PH20 24000 U
[14] = Subj 38, ZA 0.0706 mg/kg SC, inf 0.554 hr, PH20 23952 U
[15] = Subj 39, ZA 0.0691 mg/kg SC, inf 0.552 hr, PH20 23856 U
[16] = Subj 41, ZA 0.0653 mg/kg SC, inf […], PH20 12216 U
[17] = Subj 46, ZA 0.0877 mg/kg SC, inf 0.276 hr, PH20 12000 U
[18] = Subj 51, ZA […] SC, inf 0.251 hr, PH20 6024 U
[19] = Subj 63, ZA 0.0820 mg/kg SC, inf […], PH20 6000 U
[20] = Subj 67, ZA 0.0717 mg/kg SC, inf […], PH20 2880 U
[21] = Subj 68, ZA 0.0608 mg/kg SC, inf […], PH20 2880 U
[22] = Subj 70, ZA 0.0776 mg/kg SC, inf […], PH20 2928 U
[23] = Subj 71, ZA 0.0781 mg/kg SC, inf […], PH20 6000 U
[24] = Subj 74, ZA 0.0794 mg/kg SC, inf […], PH20 6000 U
[25] = Subj 77, ZA […] SC, inf […], PH20 6000 U
[26] = ZA 0.25 mg SC + 24000 U rHuPH20, individual subjects
[27] = ZA 0.25 mg SC + 24000 U rHuPH20, mean, n=3
[28] = ZA 0.25 mg SC + 24000 U rHuPH20, median, n=3
[29] = ZA 0.5 mg SC + 24000 U rHuPH20, individual subjects
[30] = ZA 0.5 mg SC + 24000 U rHuPH20, mean, n=3
[31] = ZA 0.5 mg SC + 24000 U rHuPH20, median, n=3
[32] = ZA 1 mg SC + 24000 U rHuPH20, individual subjects
[33] = ZA 1 mg SC + 24000 U rHuPH20, mean, n=3
[34] = ZA 1 mg SC + 24000 U rHuPH20, median, n=3
[35] = ZA 2 mg SC + 24000 U rHuPH20, individual subjects

## O=P(O)(O)C(O)(Cn1ccnc1)P(=O)(O)O [ZA, 1-hydroxy-2-(1H-imidazol-1-yl)ethylidene-1,1-bisphosphonic acid]
[1]
  AUC (0-inf)/D: 0.006638 kg·h/mL
  CL: 2.511 mL/min/kg
  Cmax/D: 0.001722 kg/mL
  Vss: 0.44318 L/kg
  Vz: 0.40861 L/kg
[2]
  AUC (0-inf)/D: 0.01019 kg·h/mL
  CL: 1.635 mL/min/kg
  Cmax/D: 0.001772 kg/mL
  Vss: 0.45621 L/kg
  Vz: 0.43706 L/kg
[3]
  AUC (0-inf)/D: 0.009322 kg·h/mL
  CL: 1.7878 mL/min/kg
  Cmax/D: 0.002073 kg/mL
  Vss: 0.36447 L/kg
  Vz: 0.33982 L/kg
[4]
  AUC (0-inf)/D: 0.007097 kg·h/mL
  CL: 2.3485 mL/min/kg
  Cmax/D: 0.001739 kg/mL
  Vss: 0.44893 L/kg
  Vz: 0.44919 L/kg
[5]
  AUC (0-inf)/D: 0.00801 kg·h/mL
  CL: 2.0807 mL/min/kg
  Cmax/D: 0.002012 kg/mL
  Vss: 0.40254 L/kg
  Vz: 0.40424 L/kg
[6]
  AUC (0-inf)/D: 0.009748 kg·h/mL
  CL: 1.7097 mL/min/kg
  Cmax/D: 0.002152 kg/mL
  Vss: 0.34316 L/kg
  Vz: 0.33661 L/kg
[7]
  AUC (0-inf)/D: 0.006861 kg·h/mL
  CL: 2.4293 mL/min/kg
  Cmax/D: 0.00176 kg/mL
  Vss: 0.77861 L/kg
  Vz: 1.64423 L/kg
[8]
  AUC (0-inf)/D: 0.01198 kg·h/mL
  CL: 1.391 mL/min/kg
  Cmax/D: 0.002609 kg/mL
  Vss: 0.42621 L/kg
  Vz: 1.01736 L/kg
[9]
  AUC (0-inf)/D: 0.006142 kg·h/mL
  CL: 2.7135 mL/min/kg
  Cmax/D: 0.001276 kg/mL
  Vss: 0.91422 L/kg
  Vz: 1.53448 L/kg
[10]
  AUC (0-inf)/D: 0.007095 kg·h/mL
  CL: 2.349 mL/min/kg
  Cmax/D: 0.001853 kg/mL
  Vss: 0.66499 L/kg
  Vz: 1.76877 L/kg
[11]
  AUC (0-inf)/D: 0.007665 kg·h/mL
  CL: 2.1745 mL/min/kg
  Cmax/D: 0.001699 kg/mL
  Vss: 0.67025 L/kg
  Vz: 1.66854 L/kg
[12]
  AUC (0-inf)/D: 0.008441 kg·h/mL
  CL: 1.9745 mL/min/kg
  Cmax/D: 0.001677 kg/mL
  Vss: 1.2493 L/kg
  Vz: 3.76429 L/kg
[13]
  AUC (0-inf)/D: 0.007838 kg·h/mL
  CL: 2.1265 mL/min/kg
  Cmax/D: 0.001656 kg/mL
  Vss: 1.39565 L/kg
  Vz: 4.2995 L/kg
[14]
  AUC (0-inf)/D: 0.009027 kg·h/mL
  CL: 1.8463 mL/min/kg
  Cmax/D: 0.001657 kg/mL
  Vss: 1.52947 L/kg
  Vz: 3.90822 L/kg
[15]
  AUC (0-inf)/D: 0.01052 kg·h/mL
  CL: 1.584 mL/min/kg
  Cmax/D: 0.002127 kg/mL
  Vss: 1.20501 L/kg
  Vz: 3.57183 L/kg
[16]
  AUC (0-inf)/D: 0.01128 kg·h/mL
  CL: 1.478 mL/min/kg
  Cmax/D: 0.002159 kg/mL
  Vss: 2.37143 L/kg
  Vz: 5.48166 L/kg
[17]
  AUC (0-inf)/D: 0.008516 kg·h/mL
  CL: 1.957 mL/min/kg
  Cmax/D: 0.002429 kg/mL
  Vss: 1.09639 L/kg
  Vz: 3.51646 L/kg
[18]
  AUC (0-inf)/D: 0.009685 kg·h/mL
  CL: 1.721 mL/min/kg
  Cmax/D: 0.001817 kg/mL
  Vss: 1.27627 L/kg
  Vz: 3.04413 L/kg
[19]
  AUC (0-inf)/D: 0.008077 kg·h/mL
  CL: 2.0635 mL/min/kg
  Cmax/D: 0.002037 kg/mL
  Vss: 1.473 L/kg
  Vz: 3.66662 L/kg
[20]
  AUC (0-inf)/D: 0.01012 kg·h/mL
  CL: 1.648 mL/min/kg
  Cmax/D: 0.002176 kg/mL
  Vss: 1.03944 L/kg
  Vz: 2.6134 L/kg
[21]
  AUC (0-inf)/D: 0.01035 kg·h/mL
  CL: 1.61 mL/min/kg
  Cmax/D: 0.002368 kg/mL
  Vss: 1.59221 L/kg
  Vz: 3.88814 L/kg
[22]
  AUC (0-inf)/D: 0.008898 kg·h/mL
  CL: 1.873 mL/min/kg
  Cmax/D: 0.002771 kg/mL
  Vss: 0.98673 L/kg
  Vz: 3.15269 L/kg
[23]
  AUC (0-inf)/D: 0.008873 kg·h/mL
  CL: 1.8783 mL/min/kg
  Cmax/D: 0.002535 kg/mL
  Vss: 0.87424 L/kg
  Vz: 3.12259 L/kg
[24]
  AUC (0-inf)/D: 0.006994 kg·h/mL
  CL: 2.3828 mL/min/kg
  Cmax/D: 0.001511 kg/mL
  Vss: 1.84253 L/kg
  Vz: 4.88924 L/kg
[25]
  AUC (0-inf)/D: 0.008412 kg·h/mL
  CL: 1.9812 mL/min/kg
  Cmax/D: 0.001824 kg/mL
  Vss: 1.60873 L/kg
  Vz: 4.21769 L/kg
[26]
  AUC (0-12h): 29.30 ng·h/mL
  AUC (0-∞): 30.00 ng·h/mL and 31.77 ng·h/mL
  AUC (0-∞)/D: 0.00926 kg·h/mL and 0.00674 kg·h/mL and 0.00971 kg·h/mL
  Cmax/D: 0.00205 kg/mL and 0.00174 kg/mL and 0.00173 kg/mL
  MRT: 4.21 h
  T½elim: 1.88 h and 2.44 h and 2.10 h
[27]
  AUC (0-∞)/D: 0.00857 kg·h/mL
  Cmax/D: 0.00184 kg/mL
  T½elim: 2.14 h
[28]
  AUC (0-∞)/D: 0.00926 kg·h/mL
  Cmax/D: 0.00174 kg/mL
  T½elim: 2.10 h
ZA 0.25 mg SC, individual subjects
  MAT (mean absorption time = SC MRT − IV MRT): 1.47 h and 1.03 h and 2.31 h
ZA 0.25 mg SC, n=3
  MAT, Mean for the dose group: 1.60 h
  MAT, Median for the dose group: 1.47 h
[29]
  AUC (0-12h): 66.33 ng·h/mL
  AUC (0-∞): 68.26 ng·h/mL
  AUC (0-∞)/D: 0.00709 kg·h/mL and 0.00766 kg·h/mL and 0.00968 kg·h/mL
  Cmax/D: 0.00174 kg/mL and 0.00192 kg/mL and 0.00214 kg/mL
  MRT: 3.35 h
  T½elim: 2.24 h and 2.27 h (2×)
[30]
  AUC (0-∞)/D: 0.00814 kg·h/mL
  Cmax/D: 0.00193 kg/mL
  T½elim: 2.26 h
[31]
  AUC (0-∞)/D: 0.00766 kg·h/mL
  Cmax/D: 0.00192 kg/mL
  T½elim: 2.27 h
ZA 0.5 mg SC, individual subjects
  MAT (mean absorption time = SC MRT − IV MRT): 1.00 h and 1.11 h
ZA 0.5 mg SC, n=3
  MAT, Mean for the dose group: 1.03 h
  MAT, Median for the dose group: 1.00 h
[32]
  AUC (0-12h): 137.25 ng·h/mL
  AUC (0-∞): 158.68 ng·h/mL
  AUC (0-∞)/D: 0.00701 kg·h/mL and 0.01176 kg·h/mL and 0.00624 kg·h/mL
  Cmax/D: 0.00174 kg/mL and 0.00247 kg/mL and 0.00128 kg/mL
  MRT: 6.25 h
  Tmax: 0.73 h
  T½elim: 12.87 h and 13.95 h and 8.85 h
[33]
  AUC (0-∞)/D: 0.00834 kg·h/mL
  Cmax/D: 0.00183 kg/mL
  T½elim: 11.89 h
[34]
  AUC (0-∞)/D: 0.00701 kg·h/mL
  Cmax/D: 0.00174 kg/mL
  T½elim: 12.87 h
ZA 1 mg SC, individual subjects
  MAT (mean absorption time = SC MRT − IV MRT): 1.41 h and 1.00 h
ZA 1 mg SC, n=3
  MAT, Mean for the dose group: 1.36 h
  MAT, Median for the dose group: 1.41 h
[35]
  AUC (0-12h): 213.87 ng·h/mL and 236.51 ng·h/mL
  AUC (0-∞): 245.47 ng·h/mL and 293.51 ng·h/mL
  AUC (0-∞)/D: 0.00739 kg·h/mL and 0.00809 kg·h/mL and 0.00825 kg·h/mL
  Cmax/D: 0.00188 kg/mL and 0.00175 kg/mL and 0.00165 kg/mL
  MRT: 10.59 h
